One may read the AC50 as the concentration giving half of the maximal activity seen.

The source made the active and inactive calls.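 How the source made its calls: active means caspase luminescence falls with dose and the half-maximal concentration AC50 from the fitted curve is at or below a set limit; inconclusive means flat fit at 30 to 70% signal loss, or invalid fit; inactive means AC50 above the limit, or signal rises instead.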

The experiment has as its system INS-1E cytokine-induced caspase-3/7, Caspase-Glo luminescence, 48 h. Nature of the experiment: inhibitors of cytokine-induced caspase-3/7 activity, dose response, orthogonal assay for beta-cell apoptosis protection project, INS-1E rat cells, luminescence (AID 463206).
In the case of `C#CCOCCOCCOCCNc1nc(N2CCN(C(=O)CCCCCCCCCCNC(=O)[C@H]([C@@H](C)CC)n3cc(CCCCCN)nn3)CC2)nc(N2CCN(C(=O)CCCCCCCCCCNC(=O)[C@H]([C@@H](C)CC)n3cc(CCCCN=C(N)N)nn3)CC2)n1`, the AC50 was > 26 µM (inactive). With `Cc1nc(C)c(-c2csc(NCCc3ccccc3)n2)s1`, the AC50 was > 26 µM (inactive). With `N#C/C(=C\c1ccc([N+](=O)[O-])o1)c1nc2ccccc2[nH]1`, the AC50 is > 26 µM (inactive).

Turning to `CCN1c2ccccc2NC2N=C(OC)C(c3ccccc3)C21` (centres undefined), the AC50 was > 26 µM (inactive). For `CCC(=O)NC(c1ccccc1OC)c1ccc2cccnc2c1O` (centres undefined) the value was > 26 µM (inactive); for `CCCOc1ccc(Br)cc1CSC(=N)N`, > 12 µM (inactive); for `Cc1nn(C)c(C)c1CN(C)S(=O)(=O)c1ccc2ccccc2c1`, > 26 µM (inactive).

With `COc1ccccc1NCC(=O)N1CCN(S(=O)(=O)c2ccccc2)CC1`, the AC50 was > 26 µM (inactive). As to `Oc1ccc(Br)cc1/C=N/Nc1ccccn1`, the AC50 is > 26 µM (inactive). For `CC1=[N+](C)c2ccc3ccccc3c2C1(C)C` the value was > 26 µM (inactive); for `Cc1nc2cc(-c3ccccc3)sc2c(=O)n1N`, > 26 µM (inactive). With `Cc1cc(C)n(-c2nc3ccccc3c(=O)n2OCC#N)n1`, the AC50 was > 26 µM (inactive).

As for `COc1ccccc1N(CC(=O)N/N=C/c1c(O)ccc2ccccc12)S(C)(=O)=O`, the AC50 was > 26 µM (inactive). With `Cc1cc(C)c(C)c(S(=O)(=O)N2CCN(c3ncnc4ccccc34)CC2)c1C` the figure was > 26 µM (inactive); with `CCN(CC)c1ccc(N=Cc2ccccc2[N+](=O)[O-])cc1`, > 26 µM (inactive); with `CCN(CC)S(=O)(=O)c1cccc(NC(=O)CNc2cccc(S(=O)(=O)N3CCCC3)c2)c1`, > 26 µM (inactive). With `CC(=O)Nc1ccc(NC2=C/C(=N/S(=O)(=O)c3cccs3)c3ccccc3C2=O)cc1` the figure was > 26 µM (inactive). With `CCCCCCCCCCOC(=O)Cn1c(COc2ccccc2OC)[n+](C)c2ccccc21` the figure was > 26 µM (inactive); with `Cc1ccc(NC(=O)Cc2nn(C)c(=O)c3ccccc23)cc1F`, > 26 µM (inactive). As for `CC(C)(C)c1cc(C=C(C#N)C#N)cc(C(C)(C)C)c1O`, the AC50 is > 26 µM (inactive). For `CC1=C/C(=N\OS(=O)(=O)c2ccccc2)C(C)=CC1=O` the value was > 26 µM (inactive). For `Cc1ccc(C)c(S(=O)(=O)N2CCN(c3ncnc4sccc34)CC2)c1` the value was > 26 µM (inactive). For `CCOc1ccc(/C=N/NC(=O)c2[nH]ncc2Br)c(O)c1` the value was > 26 µM (inactive); for `N#Cc1ccc(NC(=O)Nc2ccc(Cl)cc2)cc1`, > 26 µM (inactive). Consider `O=C(c1cc(-c2ccccc2Cl)nc2ccccc12)N1CCN(c2ccccn2)CC1`, for which the AC50 was 3.83 µM. For `O=C(c1ccccc1)C(CN1CCCC1)c1ccccc1` (centres undefined) the value was > 26 µM (inactive). With `O=C1CSC(c2ccccc2F)N1` (centres undefined) the figure was > 26 µM (inactive); with `Cc1ccc(C)c(NS(=O)(=O)c2ccc(OCC(=O)NCc3cccnc3)cc2)c1`, > 26 µM (inactive); with `N#C/C(N=Nc1ccccc1O)=N\Nc1ccccc1O`, > 26 µM (inactive). As for `Cc1cc(-n2c(SCC(=O)Nc3ccc(F)c(F)c3)nc3n[nH]c(C)c3c2=N)ccc1Cl`, the AC50 was > 26 µM (inactive). For `O=C(COc1ccc(Br)cc1)N1CCN(Cc2c[nH]c3ccccc23)CC1` the value was > 26 µM (inactive); for `CCOC(=O)c1ccc(NC(=O)c2cccnc2)cc1`, > 26 µM (inactive); for `O=C(N/N=C/c1sc(N2CCOCC2)nc1-c1ccccc1)c1cccc(S(=O)(=O)N2CCCC2)c1`, > 26 µM (inactive). With `Cc1csc2ncnc(N3CCN(S(=O)(=O)c4cccc(C(F)(F)F)c4)CC3)c12` the figure was > 26 µM (inactive); with `N/C(=N\OC(=O)c1cccc(Cn2cc(C(F)(F)F)ccc2=O)c1)c1ccccc1`, > 26 µM (inactive). On to `Clc1cc2cccnc2c2ncccc12`, for which the AC50 was > 26 µM (inactive). With `CC(Oc1cccc(Cl)c1)C(=O)Nc1cc(S(=O)(=O)N2CCOCC2)ccc1N1CCCCC1` (centres undefined) the figure was > 26 µM (inactive). With `O=C(N/N=C(\Cc1ncc[nH]1)c1ccccc1)c1ccncc1` the figure was > 26 µM (inactive).

Regarding `CCCCCn1c(=O)c(C(=O)Nc2nc3ccccc3[nH]2)c(O)c2ccccc21`, the AC50 is > 26 µM (inactive). For `CC(C)(C)c1cc[n+](C2=C([O-])c3ccccc3C(=O)/C2=N\S(=O)(=O)c2cccs2)cc1` the value was > 26 µM (inactive); for `Cc1nnc2ccc(Oc3ccc(-c4ccccc4)cc3)nn12`, > 26 µM (inactive). Regarding `CCCOC(=O)c1ccc(-[n+]2c(-c3ccccc3)cc(-c3ccccc3)cc2-c2ccccc2)cc1`, the AC50 is > 26 µM (inactive). With `CCCC[n+]1ccn(C2=C([O-])c3ccccc3C(=O)/C2=N\S(=O)(=O)c2ccc(Br)cc2)c1` the figure was > 26 µM (inactive); with `CCOC(=O)N1CCN(c2ncnc3c2[nH]c2ccc(F)cc23)CC1`, > 26 µM (inactive). For `CCOC(=O)C1=C(c2ccc(OC)cc2)C(=O)c2ccccc2C1=O` the value was > 26 µM (inactive).

In the case of `CN1CCN(c2ccc([N+](=O)[O-])c3no[n+]([O-])c23)CC1`, the AC50 is > 26 µM (inactive). With `CCN(CC)c1ccc(/C=N/NC(=O)c2c(Cl)cnn2C)c(O)c1` the figure was > 26 µM (inactive); with `CCOc1ccc(CN2CCN(Cc3c[nH]c4ccccc34)CC2)cc1`, > 26 µM (inactive).

For the compound `O=C(Nc1ccc(Nc2ccncc2)cc1)c1ccc(Nc2ccnc3ccc([N+](=O)[O-])cc23)cc1[N+](=O)[O-]`, the AC50 is > 26 µM (inactive).

`CCN(CC)c1ccc(N=C2C(=O)Nc3ccccc32)cc1`: the AC50 was > 26 µM (inactive). With `COc1ccc(-c2cc(-c3ccccc3)[n+](C)c(-c3ccccc3)c2)cc1` the figure was > 26 µM (inactive); with `CCOC(=O)/C(=C\c1ccc(OC(F)F)cc1)C1=Nn2c(nnc2-c2ccc(Cl)cc2)SC1`, > 26 µM (inactive); with `Cc1cc(=O)[nH]c(N/N=C/c2ccccn2)n1`, > 26 µM (inactive).

`CCc1ccc(-c2nn(-c3ccccc3)cc2CSC(=N)N)cc1`: the AC50 is > 26 µM (inactive). With `CN1N=C(C(C)(C)C)CSC1=Nc1ccccc1`, the AC50 was > 26 µM (inactive). For `Cc1nn(Cc2c(Cl)cccc2Cl)c(C)c1NC(=O)c1cn(-c2ccccc2)nc1-c1ccccc1` the value was > 26 µM (inactive); for `CCCCSc1ccc(NC(=O)c2cccnc2)cc1`, > 26 µM (inactive); for `O=C(N/N=C/c1cccc(F)c1)c1c(O)c2ccccc2[nH]c1=O`, > 26 µM (inactive). With `COc1ccc(/C=C/C(=O)NC(=S)Nc2ccccc2C(=O)NC2CCCCC2)cc1` the figure was > 26 µM (inactive); with `Cc1cc(C(=O)N/N=C/c2cc(Br)ccc2OC(=O)c2ccccc2)n[nH]1`, > 26 µM (inactive). For `COc1ccc(-c2n(Cc3ccccc3)c3ccccc3[n+]2Cc2ccccc2)cc1` the value was > 26 µM (inactive). As for `COc1ccc2nc(/C(C#N)=C\c3ccc(Oc4ccc([N+](=O)[O-])cn4)cc3)[nH]c2c1`, the AC50 was > 26 µM (inactive). With `CCOC(=O)C(=Cc1ccc(Br)cc1)C(=O)OCC` the figure was > 26 µM (inactive); with `Nc1nonc1-n1nnc(C(=O)N/N=C/c2cc(Cl)ccc2O)c1CN1CCCCCC1`, > 26 µM (inactive). For `Cc1ccc(Sc2cc(C)nc(-c3ccccn3)n2)cc1` the value was > 12 µM (inactive); for `CCCC(=O)NC(c1ccc(N(C)C)cc1)c1ccc2cccnc2c1O` (centres undefined), > 26 µM (inactive); for `COc1ccc2c(c1)C(=O)[C@@H](O)[C@H](c1ccc(OC)c(Br)c1)O2`, > 26 µM (inactive). For `CCN(CC)S(=O)(=O)c1ccc(Oc2ccc(S(=O)(=O)N(CC)CC)cc2)cc1` the value was > 26 µM (inactive); for `C[n+]1c2n(c3ccccc31)N=C(c1ccc(-c3ccccc3)cc1)CS2`, > 26 µM (inactive). In the case of `CCC(=O)NC(c1ccc(Cl)cc1Cl)c1ccc2cccnc2c1O` (centres undefined), the AC50 was > 12 µM (inactive). For `Clc1ccccc1Nc1nnc(-c2ccncc2)s1` the value was > 26 µM (inactive); for `Cc1ccc(NC(=O)CCC(=O)N/N=C/c2ccc([N+](=O)[O-])o2)cc1C`, > 26 µM (inactive); for `COc1ccc(CCNc2ccc(C(CC(N)=O)NC(=O)c3ccc(Br)cc3)cc2[N+](=O)[O-])cc1` (centres undefined), > 26 µM (inactive). For `CCOC(=O)C1CCCN(S(=O)(=O)c2ccc(S(=O)(=O)N(CC)CC)cc2)C1` (centres undefined) the value was > 26 µM (inactive); for `NC(=NCCCCCCN=C(N)/N=C(\N)Nc1ccc(Cl)cc1)/N=C(\N)Nc1ccc(Cl)cc1`, > 26 µM (inactive); for `CCOC(=O)C(NCCc1ccc(F)cc1)(NC(=O)CC)C(F)(F)F` (centres undefined), > 26 µM (inactive). With `Cc1cc(C)cc(OCCCn2ccnc2)c1` the figure was > 26 µM (inactive); with `O=C(Nc1cccc(NC(=O)c2cc([N+](=O)[O-])ccc2Cl)n1)c1cc([N+](=O)[O-])ccc1Cl`, 3.73 µM.

As for `O=C([O-])c1cc(-c2ccccc2)cc(-c2ccccc2)[n+]1Cc1ccccc1`, the AC50 is > 26 µM (inactive). For `NNC(=S)Nc1ccc(OC(F)(F)F)cc1` the value was > 26 µM (inactive); for `Cc1ccc(S(=O)(=O)c2ccc([N+](=O)[O-])cn2)cc1`, > 26 µM (inactive). For `c1csc(-c2csc3ncnc(NCCCN4CCOCC4)c23)c1` the value was > 26 µM (inactive).

`COc1cc(NC(=O)c2cc3ccccc3cc2O)c(OC)cc1Cl`: the AC50 is > 26 µM (inactive). With `CC(C)Cn1c(SCC(=O)N2CCc3ccccc3C2)nc2cc(Cl)ccc2c1=O` the figure was > 26 µM (inactive).

Values taken from PubChem BioAssay AID463206 (Broad Institute, 2010).
